{"source": "patent US20020146741A1", "about": "“Processes for receptpor screening” (priority 2000, published 2002)", "key": {"GR [1]": {"target": "T1, GR (Homo sapiens, UniProt P04150)", "T1 sequence (P04150 1-777)": "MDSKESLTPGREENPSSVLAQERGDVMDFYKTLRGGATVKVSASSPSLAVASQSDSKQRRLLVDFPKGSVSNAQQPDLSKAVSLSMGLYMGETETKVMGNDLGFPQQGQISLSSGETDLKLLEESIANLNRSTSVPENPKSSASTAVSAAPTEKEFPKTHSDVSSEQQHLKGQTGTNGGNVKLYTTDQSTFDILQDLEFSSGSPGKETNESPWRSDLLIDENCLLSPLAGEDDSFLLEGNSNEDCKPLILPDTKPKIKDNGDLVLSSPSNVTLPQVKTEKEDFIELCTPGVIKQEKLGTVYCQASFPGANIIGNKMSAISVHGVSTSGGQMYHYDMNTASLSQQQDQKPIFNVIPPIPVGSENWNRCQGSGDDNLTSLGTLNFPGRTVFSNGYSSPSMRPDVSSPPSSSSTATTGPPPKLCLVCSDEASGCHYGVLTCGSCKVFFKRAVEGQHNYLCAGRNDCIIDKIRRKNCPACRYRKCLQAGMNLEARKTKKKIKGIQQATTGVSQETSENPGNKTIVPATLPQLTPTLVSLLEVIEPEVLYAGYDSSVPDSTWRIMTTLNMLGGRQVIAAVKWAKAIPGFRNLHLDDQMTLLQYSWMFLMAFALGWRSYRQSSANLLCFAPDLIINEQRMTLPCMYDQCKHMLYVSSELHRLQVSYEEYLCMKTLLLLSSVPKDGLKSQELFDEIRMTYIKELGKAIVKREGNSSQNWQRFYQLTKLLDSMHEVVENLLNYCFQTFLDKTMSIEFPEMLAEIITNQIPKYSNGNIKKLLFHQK", "assay": "FP-based competitive ligand binding assay", "set-up": "GR was produced as a full length protein in insect cells and partially purified using ion exchange chromatography; made in house; host or cells: insect cells (baculovirus)", "conditions": "for Ki: GR 4 nM, fluorescein-dexamethasone probe, 1-hour incubation at room temperature; for RBA: relative binding affinity, dexamethasone = 100", "procedure": "FIG. 3A and B are graphs showing FP-based competition assays with recombinant GR (A) and PR-LBD (B). Serial dilutions of test steroids were prepared. […] Final incubation conditions were similar to those described in FIG. 3. The final concentration of GR used was 4 nM, and for PR-LBD it was 8 nM. After a 1-hour incubation at room temperature, the fluorescence polarization of each well was read, using wells lacking fluor as blanks.\nThe other criteria used for validating a fluorescent steroid conjugate is the ability of known receptor ligands to compete with the fluor for binding to the receptor."}, "GR [2]": {"target": "T1, GR", "conditions": "literature RBA, dexamethasone = 100; cited from earlier work"}}, "data": [{"molecule": "CC1(C)O[C@@H]2C[C@H]3[C@@H]4CCC5=CC(=O)C=C[C@]5(C)[C@@]4(F)[C@@H](O)C[C@]3(C)[C@]2(C(=O)CO)O1", "note": "[Triamcinolone acetonide]", "values": [{"measurement": "Ki", "setting": "GR [1]", "result": 0.9, "unit": "nM"}]}, {"molecule": "C[C@]12CCC(=O)C=C1CC[C@@H]1[C@@H]2[C@@H](O)C[C@@]2(C)[C@H]1CC[C@]2(O)C(=O)CO", "note": "[Cortisol]", "values": [{"measurement": "Literature Value", "setting": "GR [2]", "result": 33}, {"measurement": "RBA", "setting": "GR [1]", "result": 24}]}, {"molecule": "CC1(C)O[C@@H]2C[C@H]3[C@@H]4C[C@H](F)C5=CC(=O)C=C[C@]5(C)[C@H]4[C@@H](O)C[C@]3(C)[C@]2(C(=O)CO)O1", "note": "[Flunisolide]", "values": [{"measurement": "Literature Value", "setting": "GR [2]", "result": 100}, {"measurement": "Ki", "setting": "GR [1]", "result": 1, "unit": "nM"}, {"measurement": "RBA", "setting": "GR [1]", "result": 73}]}, {"molecule": "CC(=O)OCC(=O)[C@@]12OC(C)(C)O[C@@H]1C[C@H]1[C@@H]3C[C@H](F)C4=CC(=O)C=C[C@]4(C)[C@@]3(F)[C@@H](O)C[C@@]12C", "note": "[Fluocinonide]", "values": [{"measurement": "Ki", "setting": "GR [1]", "result": 4.4, "unit": "nM"}, {"measurement": "RBA", "setting": "GR [1]", "result": 17}]}, {"molecule": "CC(=O)OCC(=O)[C@@]12OC3(CCCC3)O[C@@H]1C[C@H]1[C@@H]3CCC4=CC(=O)C=C[C@]4(C)[C@@]3(F)[C@@H](O)C[C@@]12C", "note": "[Amcinonide]", "values": [{"measurement": "Ki", "setting": "GR [1]", "result": 1.9, "unit": "nM"}, {"measurement": "RBA", "setting": "GR [1]", "result": 40}]}]}
